In patent US7101854B2, “Tetrapeptide stimulating the functional activity of hepatocytes, pharmacological substance on its basis and the method of its application” (Sankt-Peterburgskaya Obschestvennaya Organizatsiya …, priority 2000, dated 2006):
Residues, ends and D or L forms follow the SMILES beside them.

Columns and labels:
[1] = tested on: hepatoma-27; assay: Growth of transplanted hepatoma-27 in rats; format: in vivo; settings: for Mean life span (days after the tumour transplantation): rats with hepatoma-27; for Tumour growth: tetrapeptide 1 μg/kg s.c. 10 days, stabilised since 30th day, cyclophosphamide 100 μg/kg i.p. once, from 16th day; for Animals with complete tumour resolution: tetrapeptide: days 16, 25, 43, cyclophosphamide: days 28, 32, 41 after transplantation
Procedure: The study was performed on 37 female rats weighing 150-200 g with hepatoma-27 subcutaneously transplanted to the right femur region. […] Cyclophosphamide administered once intraperitoneally in the dose of 100 μg/kg was employed as a positive control. The tumour dynamics and animals' survival rate were assessed in experiments.

[2] = tested on: white mongrel male mice; assay: Acute toxicity according to Kerber, single intramuscular administration; format: in vivo
Description: This study was designed to define the tolerable toxic doses of the preparation, assess the degree and character of pathologic alterations in various organs and systems of the organism and reveal the dependence of toxic effects on the dosage and duration of the preparation intake.
Examined were 72 white mongrel male mice weighing 20–22 g. The mice were kept in vivarium under standard regimen and fed upon standard rations. They were randomised to six equal groups, 12 mice in each. The animals were once intramuscularly administered with 0.25 ml of the preparation in the doses of 1 mg/kg, 2 mg/kg, 3 mg/kg, 4 mg/kg and 5 mg/kg (several thousand times exceeding the therapeutic dose recommended for clinical trials). The control animals received the same amount of natural saline solution.
No alterations in their general state, behaviour, motor activity, hair and skin integument, physiological discharge were registered.

[3] = tested on: white mongrel rats; assay: Subacute toxicity, daily intramuscular injection for 90 days; format: in vivo; settings: i.m. 1 μg/kg, 0.3 mg/kg, 3 mg/kg daily for 90 days
Procedure: The animals were intramuscularly injected with the preparation once a day in the doses of 1 μg/kg, 0.3 mg/kg, 3 mg/kg in 0.5 ml of natural saline solution, daily for 90 days. The control animals were administered with natural saline solution in the same amount.
The animals were under daily observation during the whole course of investigation. Their behaviour, food and water consumption, state of hair integument and mucous membranes were noted. The rats were weighed weekly. Before the preparation administration and on the 30th, 60th and 90th days thereof the morphological composition and properties of their peripheral blood were examined. Biochemical and coagulological properties of the blood were studied at the experiment completion.

[4] = tested on: rats; assay: Chronic toxicity, daily intramuscular injection for 6 months; format: in vivo; settings: i.m. 1 μg/kg, 0.1 mg/kg, 1 mg/kg daily for 6 months
Procedure: The animals were intramuscularly injected with the preparation in the doses of 1 μg/kg, 0.1 mg/kg, 1 mg/kg in 0.5 ml of natural saline solution, daily for 6 months. Their behaviour, food and water consumption, state of hair integument and mucous membranes were noted. The rats were weighed daily during the first three months of the experiment and then once a month. In three months after the administration onset and at the experiment completion, haematological and biochemical investigations were conducted. The functions of the cardiovascular system, liver, pancreas, kidneys and adrenal glands were assessed. At the end of the tetrapeptide administration, part of the animals were subjected to a post mortem examination to assess the state of various segments of their brain and spinal marrow, heart, aorta, lungs, liver, kidneys, endocrine and immune organs.

[5] = tested on: hepatocyte monolayer culture of rats of various ages; assay: Intensity of protein synthesis ([3H]-leucin inclusion) in monolayer hepatocyte culture; format: cell-based; settings: 0.005 μg/ml, 4 hours
Procedure: The intensity of protein synthesis was investigated in a hepatocyte culture of rats aged 4, 8 and 18 months.
To isolate hepatocytes, rat liver was perfused with calcium-free Hanks' solution added 0.5 mM of EDTA and then 0.05% collagenase solution in Medium 199. The cellular suspension was filtered out and centrifuged. The hepatocyte suspension in the concentration of 5×10^5 was introduced into Petri's dishes, their bottoms surfaced with collagen-covered glass. Applied Medium 199 contained no bovine serum but was added 0.2 mg/ml of albumen and 5 μg/ml of insulin. The dishes with glass-covered bottoms were placed in a thermostat at 37° C., aerated and added CO2. […]
Protein synthesis was assessed by [^3H]-leucin inclusion regarding the standard errors for a free marked leucin pull in the same culture. […] Radioactivity of the pull of free intracellular leucin and cellular proteins (in hyamine fraction) after adding the corresponding scintillators was measured on a radioactivity counter SL-30.
The intensity of protein synthesis was calculated by the formula: Icorr=Ii×Pav/Pi(cpm), where
Icorr—inclusion of leucin regarding the standard errors of free leucin pull, Ii—measured radioactivity of the proteins for i-culture, Pav—mean radioactivity of proteins and pull for the cultures studied in this experiment, Pi—total radioactivity of proteins and pull of the same culture.

[6] = tested on: liver fragments of 10–11-days old chicken embryos; assay: Development of liver explants (square index); format: cell-based; settings: 20 ng/ml, third day of cultivation
Procedure: The experiments were carried out in 53 liver fragments of 10–11-days old chicken embryos. Nutrient medium for the explant cultivation consisted of 35% of Eagle's solution, 25% of foetal calf serum, 35% of Hank's solution and 5% of chicken embryonic extract. The mixture is added glucose (0.6%), insulin (0.5 unit/ml), penicillin (100 unit/ml) and glutamine (2 mM). The liver fragments were placed in this medium and cultivated in Petri's dishes in a thermostat at 36.7° C. during 48 hours. […] Square index (SI) was taken for a biological activity criterion and calculated as a correlation of the total explant square including the growth zone to the initial square of a liver fragment. The SI values were expressed per cent, the control SI value taken for 100%.

[7] = tested on: patients with chronic persistent hepatitis; assay: Clinical application in patients with chronic persistent hepatitis; format: in vivo, human
Procedure: The trial was carried out on 23 patients aged 32–53 years. The disease duration constituted 10–20 years. 79% of the patients had virus hepatitis A in the case history and 11%—virus hepatitis B. The majority of the patients complained of pains in the right hypochondrium, general weakness and quick fatigability. 45% of the patients noted dyspeptic disorders. All the patients had previously received periodic conventional medications.
The control group included 12 analogous patients treated by conventional methods.
The patients' complaints were assessed in dynamics. Performed were total blood and urine counts, biochemical blood investigation (“REFLOTRON”, Boehringer Mannheim, Germany) and immune assay of the peripheral blood (definition of Ig according to Mancini). Ultrasound investigation of-the liver was carried out on an ultrasound apparatus (ALOKA, Japan). Against the background of the applied treatment 93% of the patients noted weakness elimination, improved appetite and increased workability. […] The biochemical test results were in the focus of attention during the patients' examination. They reflected aminotransferase activity, pigment- and protein-forming functions of the liver. 72% of the patients registered hyperbilirubinemia, increased level of alanine aminotransferase (ALT) and slight rise in γ-globulin fraction of the blood proteins, chiefly, due to IgM, which evidenced a certain activity of the chronic inflammatory process.

[8] = tested on: rats with acute toxic hepatitis; assay: Acute toxic hepatitis induced by CCl4 in rats
Procedure: Freshly made solution heated to 30–35° C. was introduced into the femoral region at the ratio of 0.5 ml per 100 g of the animal's body weight, daily for 5 days.
In 5 days after the tetrapeptide administration completion, the rats were euthanaised and the investigation results were assessed.
In 20 days after the experiment onset, the rats were euthanaised.
The control animals received natural saline injections according to the same plans.
The state of the animals' liver was assessed by the data of biochemical analysis defining the concentration of protein, bilirubin, cholesterol, alanine aminotransferase (ALT) and aspartate aminotransferase (AST).
Tissue bits were fixed in 10% formalin solution in a 0.1M sodium phosphate buffer (pH 7.4). The histological preparations were stained with haematoxylin-eosin, staining for fat was performed with Sudan-3 and for glycogen—according to McManus.

[9] = after treatment, i.m. once a day 0.01–100 μg/kg, 10–40 days
[10] = against the background of the applied treatment
[11] = Day 5, 1 μg i.m. for 5 days accompanying CCl4 impact
[12] = Day 20, 1 μg i.m. daily for 15 days after CCl4 impact
[13] = Day 20, tetrapeptide after CCl4 impact

## O=P1(N(CCCl)CCCl)NCCCO1 (centres unmarked) [Cyclophosphamide, reference compound]
[1]
  Mean life span (days after the tumour transplantation): 61.50 ± 4.58 days
  Tumour growth: stable decrease in the tumour growth rate
  Animals with complete tumour resolution: three

## C[C@H](NC(=O)[C@H](CC(=O)O)NC(=O)[C@H](CCC(=O)O)NC(=O)[C@@H](N)CCCCN)C(=O)O [Lys-Glu-Asp-Ala tetrapeptide, lysyl-glutamyl-aspartyl-alanine] (H-KEDA-OH)
[2]; doses several thousand times exceeding the therapeutic one
  Acute toxic reactions: does not entail any acute toxic reactions
[2]; single intramuscular 1, 2, 3, 4, 5 mg/kg, 72 hours and 14 days
  Death of animals: none of the animals died
[3]
  Pathologic alterations (general state, blood indices, organs, liver and kidney functions), subacute toxicity: no pathologic alterations
[4]
  Pathologic alterations (general state, blood indices, organs, liver and kidney functions), chronic toxicity: no pathologic alterations
[5]; hepatocytes of older rats
  Protein synthesis oscillation amplitude: increased significantly
[5]; rats aged 4, 8 and 18 months, strongest effect in cells of older animals
  Level of protein synthesis in hepatocytes: raised the level of protein synthesis
[6]
  Increase in the explant square index (SI) compared to control: 24%
[1]; 30th day, 1 μg/kg s.c. daily for 10 days
  Tumour size relative to controls (times less): 2.5 times
[1]
  Mean life span (days after the tumour transplantation): 68.00 ± 1.23 days
  Tumour growth: stable inhibition of the tumour growth
  Animals with complete tumour resolution: Three
[1]; tetrapeptide from the 39th day after transplantation, cyclophosphamide only on the 43rd day
  Proportion of ulcer-bearing animals: significant decrease in the proportion of ulcer-bearing animals
[7]; after treatment
  IgA: 2.30 ± 0.07 g/L
  IgG: 13.9 ± 0.9 g/L
  IgM: 1.50 ± 0.03 g/L
[7]; [9]
  ALT (peripheral blood): 40.8 ± 3.1 mmol/L
  AST (peripheral blood): 38.5 ± 2.4 mmol/L
  Bilirubin (peripheral blood): 21.7 µM
  Cholesterol (peripheral blood): 5.1 ± 0.3 mmol/L
  GGT (peripheral blood): 41.6 ± 4.5 mmol/L
  Triglycerides (peripheral blood): 2.2 ± 0.2 mmol/L
[7]; [10]
  Patients noting weakness elimination, improved appetite and increased workability: 93%
  Patients with significantly lower intensity of the pain syndrome: 51%
[8]; [11]
  ALT: 35.3 ± 3.8 international units per ml
  AST: 35.6 ± 4.3 international unit per ml
  Cholesterol: 4.1 ± 0.25 mm/l
  Protein (blood): 77.8 ± 3.7 g/L
  Total bilirubin: 12.5 ± 2.1 µmol/L
[8]; Day 5, tetrapeptide accompanying CCl4 impact
  Hepatocytes with fat inclusions: 49.8 ± 6.3 %
[8]; [12]
  ALT: 5.3 ± 0.98 international units per ml
  AST: 11.3 ± 1.9 international unit per ml
  Cholesterol: 4.2 ± 0.35 mm/l
  Protein (blood): 83.4 ± 3.4 g/L
  Total bilirubin: 14.8 ± 3.2 µmol/L
[8]; [13]
  Hepatocytes with fat inclusions: 10.0 ± 2.1 %
  Hepatocytes with glycogen synthesis: 90.0 ± 8.1 %
[8]; Day 20, tetrapeptide for 15 days after CCl4 impact
  Hepatocytes with negative staining for fat: 90%
[8]; tetrapeptide during 15 days after the end of CCl4 impact
  Concentration of protein, bilirubin, cholesterol and aminotransferases in the blood: restored to the normal values
